From patent US9120820B2, “Fluorescent molecular probes for use in assays that measure test compound competitive binding with SAM-utilizing proteins” (CAYMAN CHEMICAL COMPANY, INCORPORATED, priority 2011, dated 2015)
Read-outs that look alike come from different tables or passages of the source.

Experiments:
G9a = biological target: T1, G9a (Homo sapiens, UniProt Q96KQ7); experiment: Fluorescence polarization saturation binding of fluorescent probe to G9a
T1 construct: purchased Cayman 49010353
T1 sequence (Q96KQ7 1-1210): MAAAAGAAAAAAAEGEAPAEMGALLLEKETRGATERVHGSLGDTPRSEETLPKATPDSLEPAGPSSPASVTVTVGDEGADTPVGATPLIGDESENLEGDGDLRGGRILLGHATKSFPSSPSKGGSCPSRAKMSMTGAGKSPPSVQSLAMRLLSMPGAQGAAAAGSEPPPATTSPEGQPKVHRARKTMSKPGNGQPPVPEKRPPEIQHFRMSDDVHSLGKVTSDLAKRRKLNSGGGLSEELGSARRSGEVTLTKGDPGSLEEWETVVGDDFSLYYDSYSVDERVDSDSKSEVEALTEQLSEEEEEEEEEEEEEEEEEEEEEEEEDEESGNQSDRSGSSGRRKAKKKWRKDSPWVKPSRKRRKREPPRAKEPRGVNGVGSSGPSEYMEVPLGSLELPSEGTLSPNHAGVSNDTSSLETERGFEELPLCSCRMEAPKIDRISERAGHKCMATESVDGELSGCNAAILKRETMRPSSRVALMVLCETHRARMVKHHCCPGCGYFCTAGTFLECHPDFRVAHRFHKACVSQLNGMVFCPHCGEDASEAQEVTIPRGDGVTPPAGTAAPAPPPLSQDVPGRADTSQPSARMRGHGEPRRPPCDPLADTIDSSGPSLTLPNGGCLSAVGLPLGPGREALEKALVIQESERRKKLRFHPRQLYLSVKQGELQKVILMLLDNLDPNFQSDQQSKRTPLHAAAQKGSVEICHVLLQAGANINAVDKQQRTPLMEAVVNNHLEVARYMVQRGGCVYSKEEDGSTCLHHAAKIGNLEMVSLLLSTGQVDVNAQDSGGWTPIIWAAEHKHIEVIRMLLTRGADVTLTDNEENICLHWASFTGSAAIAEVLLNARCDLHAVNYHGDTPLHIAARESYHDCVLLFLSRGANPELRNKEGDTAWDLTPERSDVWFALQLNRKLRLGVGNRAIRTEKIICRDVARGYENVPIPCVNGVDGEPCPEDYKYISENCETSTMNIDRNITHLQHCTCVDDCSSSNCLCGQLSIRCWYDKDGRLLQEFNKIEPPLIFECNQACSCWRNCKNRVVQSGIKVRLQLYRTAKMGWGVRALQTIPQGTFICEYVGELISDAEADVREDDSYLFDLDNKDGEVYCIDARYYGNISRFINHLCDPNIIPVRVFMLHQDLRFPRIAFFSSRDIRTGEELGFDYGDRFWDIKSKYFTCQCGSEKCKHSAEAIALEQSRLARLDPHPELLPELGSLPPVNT
Protocol: (§1) Methods: The experiment was performed once, with two replicate wells for all methyltransferases per condition. The sole exception to this is NSD2 (see details below). The assay was performed in a ½ area, black, 96-well plate (Corning #3686) in a final volume of 30 μL. Methyltransferases (Table 1) were serially diluted two-fold in FP buffer (Cayman Catalog #600028) and 15 μL of a given dilution were added per well to the assay plate. Fifteen microliters of sinefungin probe 1A (10 nM) were added to each well, giving a final sinefungin probe 1A concentration of 5 nM. This concentration of sinefungin probe 1A was chosen because it had at least a 10-fold increase in fluorescence (excitation max 575 nm/emission max 615 nm) over background (buffer). The mixture was incubated in the dark at room temperature for 30 minutes and its fluorescence polarization was read using a BioTek Synergy 4.

KMT5b = KMT5b (Homo sapiens, UniProt Q4FZB7); experiment: Fluorescence polarization saturation binding of fluorescent probe to KMT5b; conditions: saturation-binding format, mean ± SEM, read-out: Sinefungin Probe 1A Affinity
Chain of KMT5b (Q4FZB7 whole entry, species assumed): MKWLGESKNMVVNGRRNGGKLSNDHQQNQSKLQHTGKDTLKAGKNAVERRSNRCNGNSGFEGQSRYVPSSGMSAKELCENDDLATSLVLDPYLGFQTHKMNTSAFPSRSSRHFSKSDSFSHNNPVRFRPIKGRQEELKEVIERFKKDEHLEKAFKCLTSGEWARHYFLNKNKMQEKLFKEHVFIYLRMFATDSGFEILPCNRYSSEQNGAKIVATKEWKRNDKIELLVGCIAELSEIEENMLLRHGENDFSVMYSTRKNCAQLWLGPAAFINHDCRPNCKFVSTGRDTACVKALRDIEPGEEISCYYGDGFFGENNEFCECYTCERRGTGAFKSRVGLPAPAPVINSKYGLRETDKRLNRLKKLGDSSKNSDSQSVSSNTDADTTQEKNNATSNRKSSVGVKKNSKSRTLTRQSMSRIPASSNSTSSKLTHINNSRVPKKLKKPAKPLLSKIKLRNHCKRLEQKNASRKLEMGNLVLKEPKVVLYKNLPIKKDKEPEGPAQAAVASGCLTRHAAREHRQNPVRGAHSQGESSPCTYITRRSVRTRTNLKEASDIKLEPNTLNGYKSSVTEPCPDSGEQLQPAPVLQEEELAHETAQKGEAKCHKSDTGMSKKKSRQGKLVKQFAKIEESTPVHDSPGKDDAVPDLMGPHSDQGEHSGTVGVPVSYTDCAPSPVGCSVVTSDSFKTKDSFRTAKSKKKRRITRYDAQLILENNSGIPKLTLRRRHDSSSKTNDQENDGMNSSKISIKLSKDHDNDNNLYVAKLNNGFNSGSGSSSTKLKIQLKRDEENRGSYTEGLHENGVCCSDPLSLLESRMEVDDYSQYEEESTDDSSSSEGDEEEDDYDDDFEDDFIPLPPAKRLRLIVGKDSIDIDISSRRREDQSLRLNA
Protocol: (§2) Sinefungin Probe 1A was tested for the ability to bind to 16 proteins, including several non-methlytransferase protein controls (Table 2). This probe binds to 4 methyltransferases (SET7/9, G9a, GLP, MLL) with Kd values <2 μM.

MLL = MLL (Homo sapiens, UniProt Q03164); experiment: Fluorescence polarization saturation binding of fluorescent probe to MLL; conditions: saturation-binding format, mean ± SEM, read-out: Sinefungin Probe 1A Affinity
Chain of MLL (Q03164 3785-3969 limits assumed): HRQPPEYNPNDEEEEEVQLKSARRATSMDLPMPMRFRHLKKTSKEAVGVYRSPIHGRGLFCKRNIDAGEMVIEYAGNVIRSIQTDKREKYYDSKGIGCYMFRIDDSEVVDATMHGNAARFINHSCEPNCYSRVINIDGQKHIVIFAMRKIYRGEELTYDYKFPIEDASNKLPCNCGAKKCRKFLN
Protocol: as §2

PRMT1 = biological target: T2, PRMT1 (Homo sapiens, UniProt Q99873); experiment: Fluorescence polarization saturation binding of fluorescent probe to PRMT1
T2 construct: purchased Cayman
T2 sequence (Q99873 whole entry): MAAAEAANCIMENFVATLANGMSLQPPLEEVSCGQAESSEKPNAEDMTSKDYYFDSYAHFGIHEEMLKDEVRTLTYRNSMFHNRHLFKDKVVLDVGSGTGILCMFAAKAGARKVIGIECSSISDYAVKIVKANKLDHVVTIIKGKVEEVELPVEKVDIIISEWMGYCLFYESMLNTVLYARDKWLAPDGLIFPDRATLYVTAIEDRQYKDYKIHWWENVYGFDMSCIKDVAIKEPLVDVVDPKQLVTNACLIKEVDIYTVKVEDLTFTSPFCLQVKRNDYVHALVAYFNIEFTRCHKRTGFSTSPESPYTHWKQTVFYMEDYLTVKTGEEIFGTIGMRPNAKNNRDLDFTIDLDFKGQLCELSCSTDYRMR
Protocol: as §1

SET8 = biological target: T3, SET8 (Homo sapiens, UniProt Q9NQR1); experiment: Fluorescence polarization saturation binding of fluorescent probe to SET8
T3 construct: purchased Cayman 10319
T3 sequence (Q9NQR1 1-393): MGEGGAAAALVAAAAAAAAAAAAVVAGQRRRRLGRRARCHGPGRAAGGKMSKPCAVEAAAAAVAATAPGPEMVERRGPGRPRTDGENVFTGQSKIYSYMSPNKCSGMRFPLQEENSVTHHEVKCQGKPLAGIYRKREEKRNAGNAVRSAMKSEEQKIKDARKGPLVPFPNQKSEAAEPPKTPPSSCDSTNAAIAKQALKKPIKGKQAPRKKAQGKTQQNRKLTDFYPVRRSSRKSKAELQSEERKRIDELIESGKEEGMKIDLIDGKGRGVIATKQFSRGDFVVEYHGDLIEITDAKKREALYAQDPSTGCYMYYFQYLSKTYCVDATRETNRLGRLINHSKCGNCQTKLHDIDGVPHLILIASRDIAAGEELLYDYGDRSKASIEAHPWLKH
Protocol: as §1

KMT5c = KMT5c (Homo sapiens, UniProt Q86Y97); experiment: Fluorescence polarization saturation binding of fluorescent probe to KMT5c; conditions: saturation-binding format, read-out: Sinefungin Probe 1A Affinity
Chain of KMT5c (Q86Y97 whole entry, species assumed): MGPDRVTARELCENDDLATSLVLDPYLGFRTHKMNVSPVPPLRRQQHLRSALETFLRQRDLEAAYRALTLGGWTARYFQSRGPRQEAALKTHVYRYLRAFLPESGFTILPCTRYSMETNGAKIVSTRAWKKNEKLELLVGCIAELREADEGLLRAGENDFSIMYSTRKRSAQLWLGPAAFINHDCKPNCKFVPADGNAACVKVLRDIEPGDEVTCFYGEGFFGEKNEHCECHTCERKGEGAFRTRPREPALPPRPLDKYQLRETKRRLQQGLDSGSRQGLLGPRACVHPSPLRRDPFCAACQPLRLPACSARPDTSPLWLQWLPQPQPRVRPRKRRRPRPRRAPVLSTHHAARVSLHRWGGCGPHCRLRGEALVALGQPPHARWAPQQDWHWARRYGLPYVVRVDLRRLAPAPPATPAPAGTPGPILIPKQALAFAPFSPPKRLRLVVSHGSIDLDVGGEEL
Protocol: as §2

DNMT3b = DNMT3b (Homo sapiens, UniProt Q9UBC3); experiment: Fluorescence polarization saturation binding of fluorescent probe to DNMT3b; conditions: saturation-binding format, read-out: Sinefungin Probe 1A Affinity
Protocol: as §2

Nc1ncnc2c1ncn2[C@@H]1O[C@H](C[C@@H](N)CC[C@H](N)C(=O)O)[C@@H](OCc2cnnn2CCCCCCNC(=O)OC2CCN(C(=O)c3ccccc3C3=c4cc5c6c(c4Oc4c3cc3c7c4CCCN7CCC3)CCC[N+]=6CCC5)CC2)[C@H]1O [Sinefungin Probe 1A]
Kd (G9a; Example 8, G9a, 5 nM probe, experiment performed once, FIG. 2, read-out: Kd): ~700 nM | Kd (G9a; G9a, saturation-binding format, mean ± SEM, read-out: Sinefungin Probe 1A Affinity): 1800 ± 1000 nM | Kd (KMT5b): 6100 ± 800 nM | Kd (MLL): 750 ± 65 nM | measurable affinity for the probe (PRMT1; Example 8, PRMT1, 5 nM probe, FIG. 2): only SET7/9 and G9a displayed measurable affinity | Kd (PRMT1; PRMT1, saturation-binding format, read-out: Sinefungin Probe 1A Affinity): > 1200 nM | measurable affinity for the probe (SET8; Example 8, SET8, 5 nM probe, FIG. 2): only SET7/9 and G9a displayed measurable affinity | Kd (SET8; SET8, saturation-binding format, read-out: Sinefungin Probe 1A Affinity): > 2000 nM | Kd (KMT5c): > 2000 nM | Kd (DNMT3b): > 2000 nM
